In patent US20060265137A1, “Methods to increase the capacity of high content cell-based screening assays” (Cellomics, Inc., priority 2001, published 2006):

Key:
[1] = tested on: NFkB and ERK; experiment: Primary high content screen, green channel: cytoplasm to nucleus translocation of NFkB and ERK (pooled reporter set); assay type: cell-based; details: Swiss 3T3 cells, 30 minutes treatment, ALEXA FLUOR 488 secondary antibodies, versus negative controls, FIG. 5
Source text: (§1) 1. Cytoplasm to nuclear translocation: (A preferred embodiment of the method is described in detail in U.S. Pat. No. 5,989,835) A nuclear image is acquired and preferably thresholded to create a nuclear mask. A cytoplasmic image is created using either the nuclear image or the fluorescent signals from the fluorescent reporter molecules in the reporter set. Preferably, a cytoplasmic mask is created. Translocation of the fluorescent reporter molecules in an appropriate reporter set(s) between the nucleus and cytoplasm can then be determined by detecting fluorescent signals in the nuclear mask and cytoplasmic mask in the presence and absence of the one or more test compounds.
(§2) In this example, two reporter sets were used, each containing two fluorescent reporter molecules. The first reporter set consisted of ALEXA FLUOR® 488 conjugated secondary antibodies (Molecular Probes, Inc.), which both emit fluorescence detectable in the green channel. These secondary antibodies were used to bind to primary antibodies against extracellular (signal) regulated kinase (ERK) (Cell Signaling Technologies, Inc.) and Nf-kB (Zymed, Inc.). The second reporter set consisted of ALEXA FLUOR® 568 conjugated secondary antibodies (Molecular Probes, Inc.) which both emit fluorescence detectable in the red channel. These secondary antibodies were used to bind to primary antibodies against c-jun and p38.
(§3) In this experiment, the transcription factors under investigation translocate from the cytoplasm to the nucleus upon activation. Therefore, the fluorescent reporter molecules, which indirectly bind to the transcription factors, can be used to monitor the distribution of the transcription factors within the cell. However, each reporter reports on a different cellular event (i.e.: ERK translocation, Nf-kB translocation, c-jun translocation, and p38 translocation).
(§4) Swiss 3T3 cells in EMEM culture medium were plated in 96 well plates, at a plating density of 3,500 cells per well, and allowed to incubate overnight. […]

[2] = tested on: p38 and c-jun; experiment: Primary high content screen, red channel: cytoplasm to nucleus translocation of p38 and c-jun (pooled reporter set); assay type: cell-based; details: Swiss 3T3 cells, 30 minutes treatment, ALEXA FLUOR 568 secondary antibodies, FIG. 6
Source text: as §1, §2, §3, §4

## CCCCCCCCCCCCCC(=O)O[C@@H]1[C@@H](C)[C@@]2(O)[C@@H](C=C(CO)C[C@]3(O)C(=O)C(C)=C[C@@H]23)[C@@H]2C(C)(C)[C@]12OC(C)=O [PMA]
[1]
  translocation in the green channel (NFkB and ERK; difference between cytoplasm and nuclear localization): both NFkB and ERK specific translocations can be observed
[2]
  translocation in the red channel (p38 and c-jun): increase in translocation for p38 and c-jun

## COc1ccc(C[C@H]2NC[C@H](O)[C@H]2OC(C)=O)cc1 [anisomysin]
[1]
  translocation in the green channel (NFkB and ERK; difference between cytoplasm and nuclear localization): no effect on translocation in the green channel over negative controls
[2]
  translocation in the red channel (p38 and c-jun): increase in translocation for p38 and c-jun

## TNF
[1]
  translocation in the green channel (NFkB and ERK; difference between cytoplasm and nuclear localization): both NFkB and ERK specific translocations can be observed
[2]
  translocation in the red channel (p38 and c-jun): not
